Reference: patent US5430169A, “Method for preparation of sphingoid bases” (The United States of America represented by the Department …, priority 1994, dated 1995)
Entries after “also recorded” stand apart in the source; their conditions may differ.

What was measured:
rat liver aldolase = target: T1, rat liver aldolase (Rattus norvegicus, UniProt Q8CHN6); assay: in vitro biological evaluation: inhibition of rat liver aldolase; assay type: biochemical; conditions: read-out: IC50, inhibited rat liver aldolase
T1 construct: from tissue; host or cells: rat liver
T1 sequence (Q8CHN6 1-568): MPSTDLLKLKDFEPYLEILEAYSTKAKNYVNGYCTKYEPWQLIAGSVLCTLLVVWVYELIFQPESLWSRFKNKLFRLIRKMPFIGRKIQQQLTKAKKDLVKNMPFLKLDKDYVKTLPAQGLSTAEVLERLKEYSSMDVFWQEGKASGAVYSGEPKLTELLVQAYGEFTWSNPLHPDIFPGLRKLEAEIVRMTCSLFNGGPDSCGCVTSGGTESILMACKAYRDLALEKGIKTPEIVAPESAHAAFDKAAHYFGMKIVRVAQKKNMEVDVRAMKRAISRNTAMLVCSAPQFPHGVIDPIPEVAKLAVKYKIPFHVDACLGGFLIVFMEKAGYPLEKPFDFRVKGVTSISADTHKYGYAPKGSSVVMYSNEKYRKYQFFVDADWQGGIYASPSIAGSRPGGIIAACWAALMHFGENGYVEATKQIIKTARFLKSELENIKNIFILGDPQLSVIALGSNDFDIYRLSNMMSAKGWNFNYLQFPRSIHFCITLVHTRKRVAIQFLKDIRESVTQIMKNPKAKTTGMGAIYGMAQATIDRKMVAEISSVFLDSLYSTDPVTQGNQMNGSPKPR

S-1-P aldolase [1] = assay: time dependent (irreversible) inhibition of S-1-P aldolase; assay type: biochemical; conditions: mode of inhibition, in words
Swiss 3T3 fibroblasts = conditions: in words; cited from earlier work
[2] = tested on: permeabilized smooth muscle cells; conditions: IP3-sensitive and IP3-insensitive pools; cited from earlier work
S-1-P aldolase [3] = conditions: mode of inhibition, in words; cited from earlier work
permeabilized cells = conditions: cellular level / environments with other cellular components, e.g.; cited from earlier work
protein kinase C = conditions: in words; cited from earlier work

## C=CC(N)(COP(=O)(O)O)C(O)CCCCCCCCCCCCCCC (stereo not shown) [Example 4, 2-vinyl dihydrosphingosine-1-phosphate]
Rat liver aldolase
  IC50: 2.4 µM
S-1-P aldolase [1]
  time dependent (irreversible) inhibitor of S-1-P aldolase: time dependent (irreversible) inhibitor

## CCCCCCCCCCCCC/C=C/[C@@H](O)[C@@H](N)COP(=O)(O)O [Example S-1-P, sphingosine-1-phosphate]
Swiss 3T3 fibroblasts
  mitogenic effect in Swiss 3T3 fibroblasts: very potent mitogen
[2]
  translocation of calcium from intracellular stores: rapid translocation of calcium from intracellular stores

## CCCCCCCCCCCCCCCC(O)C(N)CP(=O)(O)O (stereo not shown) [DS-1-P, dihydrosphingosine-1-phosphonate]
S-1-P aldolase [3]
  inhibition of the S-1-P aldolase reaction: competitive inhibition
Permeabilized cells
  toxicity: highly toxic; also recorded: well known toxin

## C=CC(N)COP(=O)(O)O (stereo not shown) [Example 5, 2-vinyl ethanolamine-O-phosphate]
Rat liver aldolase
  IC50: 1.1 µM
S-1-P aldolase [1]
  time dependent (irreversible) inhibitor of S-1-P aldolase: time dependent (irreversible) inhibitor

## CCCCCCCCCCCCC/C=C/[C@@H](O)[C@@H](N)CO [sphingosine]
Protein kinase C
  inhibition of protein kinase C: potent and specific inhibitor

## CCCCCCCCCCCCCCCC(O)C(COP(=O)(O)O)NN (stereo not shown) [Example 3, 2-hydrazino deamino dihydrosphingosine-1-phosphate]
Rat liver aldolase
  IC50: 0.8 µM
